Results published in article PMC9610943, “Truncated Pleurocidin Derivative with High Pepsin Hydrolysis Resistance to Combat Multidrug-Resistant Pathogens” (Pharmaceutics, 2022).
Where no end group is shown, it is not given here.

What was measured:
MRSA 1530 = assay: microbe, parasite or virus in culture; assay type: cell-based, Staphylococcus aureus; conditions: 1530
Protocol: (§1) S. aureus ATCC 29213, E. coli ATCC 25922, S. enteritidis ATCC 13076 and A. baumannii ATCC 19609 were obtained from the American Type Culture Collection (ATCC). The remaining strains used in the experiment were all preserved strains in our laboratory. All strains were cultured in nutrient broth overnight to the logarithmic phase at 37 °C prior to each experiment.
(§2) The MICs of all drugs were determined by micro-broth dilution method according to CLSI 2018 guidelines. Briefly, a single colony of the bacterial strain was transferred to 1 mL of Mueller Hilton broth (MHB) and overnight at 37 °C and then 10 μL were cultured in a new 1 mL medium for 4 to 6 h, and then the bacterial culture at the logarithmic phase was diluted to 1 × 10^6 CFUs/mL. The assay was performed by adding 100 μL of each peptide solution at various concentrations (0.25 to 128 μg/mL) and 100 μL of diluted bacterial culture to different wells of a 96-well microtiter plate (Corning, NY, USA). After incubation at 37 °C for 16 to 18 h and then read its MIC value. MIC value is defined as the lowest drug concentration without visible bacteria.

MRSA T144 [1] = assay: microbe, parasite or virus in culture; assay type: cell-based, Staphylococcus aureus; conditions: T144
Protocol: as §1, §2

A. baumannii ATCC 19609 = assay: microbe, parasite or virus in culture; assay type: cell-based; conditions: ATCC 19609
Protocol: as §1, §2

E. coli 1F28 (tet(X4)) = assay: microbe, parasite or virus in culture; assay type: cell-based; conditions: 1F28 (tet(X4))
Protocol: as §1, §2

E. coli ATCC 25922 = assay: microbe, parasite or virus in culture; assay type: cell-based; conditions: ATCC 25922
Protocol: as §1, §2

[2] = system: E. coli B2 (blaNDM-5 + mcr-1); assay: microbe, parasite or virus in culture; assay type: cell-based; conditions: B2 (blaNDM-5 + mcr-1)
Protocol: as §1, §2

E. coli B3-1 (tet(X4)) = assay: microbe, parasite or virus in culture; assay type: cell-based; conditions: B3-1 (tet(X4))
Protocol: as §1, §2

E. coli C3 (blaNDM-1) = assay: microbe, parasite or virus in culture; assay type: cell-based; conditions: C3 (blaNDM-1)
Protocol: as §1, §2

E. coli CP131 (mcr-3) = assay: microbe, parasite or virus in culture; assay type: cell-based; conditions: CP131 (mcr-3)
Protocol: as §1, §2

E. coli G6 (blaNDM-5) = assay: microbe, parasite or virus in culture; assay type: cell-based; conditions: G6 (blaNDM-5)
Protocol: as §1, §2

E. coli G92 (mcr-1) = assay: microbe, parasite or virus in culture; assay type: cell-based; conditions: G92 (mcr-1)
Protocol: as §1, §2

[3] = system: E. faecalis A4 (VRE, VanA); assay: microbe, parasite or virus in culture; assay type: cell-based; conditions: A4 (VRE, VanA)
Protocol: as §1, §2

[4] = system: P. aeruginosa (VIM + tmexCD1-torJ1); assay: microbe, parasite or virus in culture; assay type: cell-based; conditions: VIM + tmexCD1-torJ1
Protocol: as §1, §2

P. aeruginosa PA14 = assay: microbe, parasite or virus in culture; assay type: cell-based; conditions: PA14
Protocol: as §1, §2

[5] = system: S. aureus 215 (cfr + LZD^R); assay: microbe, parasite or virus in culture; assay type: cell-based; conditions: S. aureus 215 (cfr + LZD^R); micro-broth dilution CLSI 2018, MHB, 37 °C, 16 to 18 h
Protocol: as §1, §2

S. aureus ATCC 29213 = assay: microbe, parasite or virus in culture; assay type: cell-based; conditions: ATCC 29213
Protocol: as §1, §2

S. aureus G16 (RIF^R) = assay: microbe, parasite or virus in culture; assay type: cell-based; conditions: S. aureus G16 (RIF^R); micro-broth dilution CLSI 2018, MHB, 37 °C, 16 to 18 h
Protocol: as §1, §2

[6] = system: S. enteritidis ATCC 13076; assay: microbe, parasite or virus in culture; assay type: cell-based; conditions: ATCC 13076
Protocol: as §1, §2

[7] = system: P. cibarius HNCF44W (blaNDM-1+ tet(X6)); assay: organism not typed; assay type: cell-based
Protocol: as §1, §2

MRSA T144 [8] = assay type: cell-based, Staphylococcus aureus
Protocol: as §2
(§3) Then, the antibacterial activity of the peptides affected by different temperatures and pH were determined according to the determination steps of MICs test.
(§4) In MHB medium, Na^+, K^+, Mg^2+ and Ca^2+ with the final concentrations of 10 mM, fetal bovine serum, plasma or DMEM medium (Hyclone, Logan, UT, USA) with the final concentrations of 10% was added, and then MIC values were measured to evaluate the effects of different cations, serum and plasma on the antibacterial activity of peptides.
(§5) The peptide was incubated with protease (pepsin, trypsin and papain) (Solarbio, Beijing, China) with a final concentration of 1 mg/mL at 37 °C for 1 h, then the mixture of peptide and protease was heated at 100 °C for 30 min, then centrifuged at 13,000× g for 30 min, and the supernatant was taken for MIC determination.

E. coli B2 = assay type: cell-based
Protocol: as §2, §3, §4, §5

Sequence “GWGSFFKKAAHVGKHVGKAALTHYL [Pleu, Pleurocidin]” has an MIC (MRSA 1530) of 8 µg/mL, an MIC (MRSA T144 [1]) of 2 µg/mL and an MIC (A. baumannii ATCC 19609) of 2 µg/mL. For the same sequence, the MIC (E. coli 1F28 (tet(X4))) was 4 µg/mL, the MIC (E. coli ATCC 25922) was 1 µg/mL and the MIC [2] was 2 µg/mL. It also gave an MIC (E. coli B3-1 (tet(X4))) of 1 µg/mL, an MIC (E. coli C3 (blaNDM-1)) of 1 µg/mL and an MIC (E. coli CP131 (mcr-3)) of 1 µg/mL. For the same sequence, the MIC (E. coli G6 (blaNDM-5)) was 1 µg/mL, the MIC (E. coli G92 (mcr-1)) was 1 µg/mL and the MIC [3] was 8 µg/mL. The MIC [4] was 4 µg/mL, the MIC (P. aeruginosa PA14) was 1 µg/mL and the MIC [5] was 2 µg/mL. It also gave an MIC (S. aureus ATCC 29213) of 4 µg/mL, an MIC (S. aureus G16 (RIF^R)) of 2 µg/mL and an MIC [6] of 1 µg/mL. The MIC [7] was 2 µg/mL, the “MIC after treatment at 121 °C” value (MRSA T144 [8]; T144) was 8 µg/mL and the “MIC in DMEM (10%)” value (MRSA T144 [8]; T144) was 2 µg/mL. The “MIC in Plasma (10%)” value (MRSA T144 [8]; T144) was 2 µg/mL, the “MIC in Serum (10%)” value (MRSA T144 [8]; T144) was 4 µg/mL and the “MIC in presence of Ca^2+” value (MRSA T144 [8]; T144) was greater than 128 µg/mL. The “MIC in presence of K^+” value (MRSA T144 [8]; T144) was 2 µg/mL, the “MIC in presence of Mg^2+” value (MRSA T144 [8]; T144) was 8 µg/mL and the “MIC in presence of Na^+” value (MRSA T144 [8]; T144) was 2 µg/mL. The “MIC, Control” value (MRSA T144 [8]; T144) was 2 µg/mL, the “MIC after Papain treatment” value (MRSA T144 [8]; T144, 1 h) was greater than 128 µg/mL and the “MIC after Pepsin treatment” value (MRSA T144 [8]; T144, 1 h) was 64 µg/mL. The “MIC after Trypsin treatment” value (MRSA T144 [8]; T144, 1 h) was greater than 128 µg/mL, the “MIC after treatment at 40 °C” value (MRSA T144 [8]; T144, 1 h) was 2 µg/mL and the “MIC after treatment at 60 °C” value (MRSA T144 [8]; T144, 1 h) was 1 µg/mL. The “MIC after treatment at 80 °C” value (MRSA T144 [8]; T144, 1 h) was 2 µg/mL, the “MIC after treatment at 100 °C” value (MRSA T144 [8]; T144, 1 h) was 4 µg/mL and the “MIC after treatment at pH 2” value (MRSA T144 [8]; T144, 1 h, pH 2) was 4 µg/mL. The “MIC after treatment at pH 4” value (MRSA T144 [8]; T144, 1 h, pH 4) was 4 µg/mL, the “MIC after treatment at pH 6” value (MRSA T144 [8]; T144, 1 h, pH 6) was 2 µg/mL and the “MIC after treatment at pH 8” value (MRSA T144 [8]; T144, 1 h, pH 8) was 4 µg/mL. For the same sequence, the “MIC after treatment at pH 10” value (MRSA T144 [8]; T144, 1 h, pH 10) was 4 µg/mL, the “MIC after treatment at pH 12” value (MRSA T144 [8]; T144, 1 h, pH 12) was 4 µg/mL and the “MIC after treatment at 121 °C” value (E. coli B2; B2) was 2 µg/mL. The “MIC in DMEM (10%)” value (E. coli B2; B2) was 4 µg/mL, the “MIC in Plasma (10%)” value (E. coli B2; B2) was less than 0.25 µg/mL and the “MIC in Serum (10%)” value (E. coli B2; B2) was 1 µg/mL. For the same sequence, the “MIC in presence of Ca^2+” value (E. coli B2; B2) was greater than 128 µg/mL, the “MIC in presence of K^+” value (E. coli B2; B2) was 1 µg/mL and the “MIC in presence of Mg^2+” value (E. coli B2; B2) was 128 µg/mL. For the same sequence, the “MIC in presence of Na^+” value (E. coli B2; B2) was 1 µg/mL, the “MIC, Control” value (E. coli B2; B2) was 2 µg/mL and the “MIC after Papain treatment” value (E. coli B2; B2, 1 h) was greater than 128 µg/mL. For the same sequence, the “MIC after Pepsin treatment” value (E. coli B2; B2, 1 h) was 128 µg/mL, the “MIC after Trypsin treatment” value (E. coli B2; B2, 1 h) was greater than 128 µg/mL and the “MIC after treatment at 40 °C” value (E. coli B2; B2, 1 h) was 1 µg/mL. For the same sequence, the “MIC after treatment at 60 °C” value (E. coli B2; B2, 1 h) was 1 µg/mL, the “MIC after treatment at 80 °C” value (E. coli B2; B2, 1 h) was 1 µg/mL and the “MIC after treatment at 100 °C” value (E. coli B2; B2, 1 h) was 2 µg/mL. The “MIC after treatment at pH 2” value (E. coli B2; B2, 1 h, pH 2) was 1 µg/mL, the “MIC after treatment at pH 4” value (E. coli B2; B2, 1 h, pH 4) was 1 µg/mL and the “MIC after treatment at pH 6” value (E. coli B2; B2, 1 h, pH 6) was 1 µg/mL. The “MIC after treatment at pH 8” value (E. coli B2; B2, 1 h, pH 8) was 1 µg/mL, the “MIC after treatment at pH 10” value (E. coli B2; B2, 1 h, pH 10) was 1 µg/mL and the “MIC after treatment at pH 12” value (E. coli B2; B2, 1 h, pH 12) was 1 µg/mL.
